The source made the active and inactive calls. No cut-off for these calls is given here. Residues, ends and D or L forms follow the SMILES beside them. *: point of attachment. Biotin = O=C1N[C@H]2[C@H](CS[C@H]2CCCCC(=O)*)N1
Columns and labels:
[1] = Cytotoxicity against mouse N9 cells assessed as reduction in cell viability at 100 uM incubated for 24 hrs by MTT assay; format: toxicity, cell-based; details: n9, 24 h
N9 [2] = assay: Inhibition of NLRP3 inflammasome activation in LPS/ATP-stimulated mouse N9 cells assessed as inhibition of IL-1beta mRNA expression at 20 uM by qRT-PCR analysis; format: cell-based
N9 [3] = assay: Inhibition of NLRP3 inflammasome activation in LPS/ATP-stimulated mouse N9 cells assessed as inhibition of caspase-1 mRNA expression at 20 uM by qRT-PCR analysis; format: cell-based
N9 [4] = assay: Inhibition of NLRP3 inflammasome activation mediated pyroptosis in LPS/ATP-stimulated mouse N9 cells assessed as reduction in cell death at 100 uM measured after 24 hrs by MTT assay; format: cell-based
[5] = target: Apoptosis-associated speck-like protein containing a CARD (Homo sapiens, UniProt Q9ULZ3); assay: Binding affinity to Alexa647-labeled ASC (unknown origin) assessed as dissociation constant incubated for 5 mins by fluorescence spectra based analysis
Sequence of Apoptosis-associated speck-like protein containing a CARD (Q9ULZ3 whole entry): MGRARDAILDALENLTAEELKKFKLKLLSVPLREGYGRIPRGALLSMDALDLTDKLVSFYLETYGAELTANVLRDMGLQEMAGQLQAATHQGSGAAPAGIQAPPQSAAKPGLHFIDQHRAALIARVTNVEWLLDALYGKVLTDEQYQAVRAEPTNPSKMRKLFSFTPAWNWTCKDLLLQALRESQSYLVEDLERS

N9 [6] = assay: Binding affinity to NLRP3 in LPS-stimulated mouse N9 cells at 10 to 30 uM incubated overnight by Western blot based pull down assay; format: cell-based; details: dose 10-30 µM
[7] = target: T1, Apoptosis-associated speck-like protein containing a CARD (Mus musculus) (UniProt Q9EPB4); assay: Binding affinity to ASC in LPS-stimulated mouse N9 cells at 10 to 30 uM incubated overnight by Western blot based pull down assay; format: cell-based; details: dose 10-30 µM
T1 sequence (whole entry): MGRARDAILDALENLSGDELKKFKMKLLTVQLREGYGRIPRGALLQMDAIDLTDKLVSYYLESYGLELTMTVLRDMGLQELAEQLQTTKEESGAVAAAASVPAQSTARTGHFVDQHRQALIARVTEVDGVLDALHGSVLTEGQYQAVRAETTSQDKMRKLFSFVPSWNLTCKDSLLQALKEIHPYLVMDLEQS

SMILES	Activity [1]	other results
CSCC[C@H](NC(=O)[C@H](CO)NC(=O)[C@H](C)NC(=O)[C@@H](NC(=O)[C@H](CC(C)C)NC(=O)[C@H](CC(N)=O)NC(=O)[C@H](CCC(=O)O)NC(=O)[C@H](CC(C)C)NC(=O)[C@H](C)NC(=O)[C@@H](N)CC(=O)O)[C@@H](C)O)C(=O)N[C@@H](CC(=O)O)C(=O)O (H-DALENLTASMD-OH)	Non-toxic	
CC[C@H](C)[C@H](NC(=O)[C@H](Cc1c[nH]c2ccccc12)NC(=O)[C@@H](N)C(C)C)C(=O)N[C@@H](CC(C)C)C(=O)N[C@@H](C)C(=O)N[C@@H](CCCCN)C(=O)N[C@@H](C)C(=O)N[C@@H](CCC(N)=O)C(=O)N[C@@H](CCCNC(=N)N)C(=O)N[C@@H](CC(=O)O)C(=O)O (H-VWILAKAQRD-OH)	Non-toxic	
CC[C@H](C)[C@H](NC(=O)[C@H](C)NC(=O)[C@H](C)NC(=O)[C@H](Cc1ccccc1)NC(=O)[C@@H](NC(=O)[C@H](Cc1c[nH]c2ccccc12)NC(=O)[C@@H](N)C(C)C)[C@@H](C)CC)C(=O)N[C@@H](CC(N)=O)C(=O)N[C@@H](CCCNC(=N)N)C(=O)N[C@@H](CCCNC(=N)N)C(=O)O (H-VWIFAAINRR-OH)	Non-toxic	inhibition (N9 [2]): Active; Better Activity Observed; inhibition (N9 [3]): Active; Better Activity Observed; inhibition (N9 [4]): Active; Kd [5]: 850 nM
CSCC[C@H](NC(=O)[C@@H](N)CO)C(=O)N[C@@H](CC(=O)O)C(=O)N[C@@H](C)C(=O)N[C@@H](CC(C)C)C(=O)N[C@@H](CC(=O)O)C(=O)N[C@@H](CC(C)C)C(=O)N[C@H](C(=O)N[C@@H](CC(=O)O)C(=O)N[C@@H](CCCCN)C(=O)N[C@@H](CC(C)C)C(=O)N[C@H](C(=O)N[C@@H](CO)C(=O)O)C(C)C)[C@@H](C)O (H-SMDALDLTDKLVS-OH)	Non-toxic	
CC[C@H](C)[C@H](NC(=O)[C@H](CS)NC(=O)CNC(=O)[C@@H](N)CCCCN)C(=O)N1CCC[C@H]1C(=O)N[C@@H](CC(C)C)C(=O)N1CCC[C@H]1C(=O)N[C@@H](CCCNC(=N)N)C(=O)O (H-KGCIPLPR-OH)	Non-toxic	
C[C@H](NC(=O)[C@@H](N)CCCCN)C(=O)N[C@@H](CCC(N)=O)C(=O)N[C@@H](CCCNC(=N)N)C(=O)N[C@@H](CC(=O)O)C(=O)O (H-KAQRD-OH)	Non-toxic	
CC[C@H](C)[C@H](NC(=O)[C@H](CCSC)NC(=O)[C@H](CC(C)C)NC(=O)[C@@H](NC(=O)[C@H](C)NC(=O)[C@H](CC(C)C)NC(=O)[C@@H](N)CC(=O)O)[C@@H](C)O)C(=O)N[C@@H](CC(=O)O)C(=O)N[C@@H](Cc1ccccc1)C(=O)O (H-DLATLMIDF-OH)	Non-toxic	
C[C@H](NC(=O)[C@@H](N)CCCCN)C(=O)N[C@@H](CCCCN)C(=O)N[C@@H](CCCNC(=N)N)C(=O)N[C@@H](CC(=O)O)C(=O)O (H-KAKRD-OH)	Non-toxic	inhibition (N9 [2]): Active; inhibition (N9 [3]): Active
CC(C)C[C@H](NC(=O)[C@H](C)NC(=O)[C@@H](N)CC(=O)O)C(=O)N[C@@H](CCC(=O)O)C(=O)N[C@@H](CC(N)=O)C(=O)O (H-DALEN-OH)	Non-toxic	
CC[C@H](C)[C@H](NC(=O)[C@H](Cc1c[nH]c2ccccc12)NC(=O)[C@@H](N)C(C)C)C(=O)N[C@@H](Cc1ccccc1)C(=O)N[C@@H](C)C(=O)N[C@@H](CCCCN)C(=O)N[C@@H](C)C(=O)N[C@@H](CCCCN)C(=O)N[C@@H](CCCNC(=N)N)C(=O)N[C@@H](CC(=O)O)C(=O)O (H-VWIFAKAKRD-OH)	Non-toxic	inhibition (N9 [2]): Active; inhibition (N9 [3]): Active
CC[C@H](C)[C@H](NC(=O)[C@H](C)NC(=O)[C@H](C)NC(=O)[C@H](CC(C)C)NC(=O)[C@@H](NC(=O)[C@H](Cc1c[nH]c2ccccc12)NC(=O)[C@@H](NC(=O)CCCC[C@@H]1SC[C@@H]2NC(=O)N[C@@H]21)C(C)C)[C@@H](C)CC)C(=O)N[C@@H](CC(N)=O)C(=O)N[C@@H](CCCNC(=N)N)C(=O)N[C@@H](CCCNC(=N)N)C(=O)O (Biotin-VWILAAINRR-OH)		Activity (N9 [6]): inactive; Activity [7]: Active
